Reference: patent publication US8568714B2, “Lys K endolysin is synergistic with lysostaphin against MRSA” (priority 2008, dated 2013)
Values joined by “and” are separate entries in the source; they are usually repeats but may differ in a detail not shown here. Equal entries are not always repeated. Where two headings read alike, the source gives them in different places.

Key:
MRSA strain USA300 = experiment: Microdilution broth MIC determination; type: cell-based, Staphylococcus aureus; conditions: MRSA USA300, TSB, 37° C., 20 h
Protocol: (§1) A classical microdilution broth method for determination of the Minimal Inhibitory Concentration (MIC) was used (Jones et al. 1985. In Manual of Clinical Microbiology, Balows et al. (Eds.), American Society for Microbiology, Washington D.C., pages 972-977). Briefly, logarithmic-phase bacteria were cultivated in tryptic soy broth and adjusted in broth to a concentration of 1×10^6 CFU/ml. Sterile microtiter plates containing 100 μl of either LysK or lysostaphin diluted in TSB are inoculated with 100 μl of the bacterial suspension to yield 5×10^5 CFU/ml. The plate is incubated at 37° C. for 20 h, at which point the plate is analyzed for clear vs. turbid wells. Each MIC assay represents at least two identical determinations per experiment.
MIC determinations for MRSA strain USA300 by lysostaphin and C-His-LysK, were performed in a 96 well microtiter plate. (FIG. 5).

MRSA USA300 = experiment: Modified checkerboard synergy assay; type: cell-based, Staphylococcus aureus
Protocol: Modified checkerboard assay experiments were performed according to Graham and Coote, supra. S. aureus 305 or MRSA USA300 cells at 1×10^6 CFU/ml were prepared as for the MIC assay, and added to wells containing varying concentrations of both LysK and lysostaphin diluted in TSB. The amount of buffer in each well was adjusted to maintain the same final concentration of storage buffer (5%) and corrected with 2×TSB to maintain 1×TSB in all wells. The plate was incubated at 37° C. for 20 h, and then analyzed for clear vs. turbid wells. The Fractional Inhibitory Concentration (FIC) is calculated as the MIC of the antimicrobial in combination divided by the MIC of the antimicrobial acting alone.
To determine if these proteins could act synergistically, both LysK and lysostaphin were tested in a checkerboard assay with various concentrations of each to determine the minimal concentration of each in combination, that could inhibit growth of the MRSA USA300 (FIG. 6). The last row and column on the 96 well microtiter plate replicate the MIC determinations for lysostaphin and LysK, respectively, with nearly identical results obtained for the MIC in this assay, as in FIG. 5. […] It is apparent that the inhibition of growth when the two were added simultaneously was greater than the expected additive effect of each alone. The ΣFIC was 0.45+/−0.07 (three independent experiments), indicating strong synergistic activity (Hall et al., supra), including one assay with S. aureus 305 (data not shown).

S. aureus strain 305 = experiment: MIC determination on S. aureus strain 305; type: cell-based; conditions: Staphylococcus aureus
Protocol: as §1

lysostaphin: recombinant non-tagged mature 246 amino acid anti-staphylococcal bacteriocin of S. simulans, Sigma-Aldrich L0761
MIC (MRSA strain USA300): 0.096 µg/mL
MIC (MRSA strain USA300; listed as Lysostaphin): 0.097 µg/mL and 0.096 ± 0.018 µg/mL
concentration of each in combination that inhibits growth (MRSA USA300; cleared well: lysostaphin 0.018 with LysK 11.43): 0.018 µg/mL
concentration of each in combination that inhibits growth (MRSA USA300; cleared well: lysostaphin 0.027 with LysK 5.71): 0.027 µg/mL
concentration in combination as % of each agent's MIC (MRSA USA300; second cleared-well condition): 16% and < 16%

CC1(C)S[C@@H]2[C@H](NC(=O)[C@H](N)c3ccccc3)C(=O)N2[C@H]1C(=O)O [Ampicillin]
MIC (S. aureus strain 305; read-out: MIC): ~0.4 µg/mL
MIC (S. aureus strain 305; translated from μg/ml, read-out: MIC on a molar basis): ~1 µM
